Values quoted from earlier work as cited in article PMC8711005, “Phase 1 Dose-Escalation Study of Plasma Kallikrein Inhibitor THR-149 for the Treatment of Diabetic Macular Edema” (Translational Vision Science & Technology, 2021).

Test system: subjects with center-involved DME
Conditions: single IVT injection, 14 subjects with center-involved DME, Month 3
From the text: A recent phase I study of another PKal inhibitor, KVD001, enrolled 14 subjects with center-involved DME who had received prior anti-VEGF treatment.[30] Baseline demographics were similar to those in the current study, with some notable differences in baseline ocular characteristics, including higher baseline BCVA and lower CST relative to those enrolled in our study. The maximum BCVA increase following a single IVT injection of KVD001 was 4.1 ETDRS letters at Month 3, with a corresponding mean reduction of 23 µm in CST. Rescue treatment was allowed; however, the frequency and imputation method ...

SMILES: CCOc1ccc(C[C@@H](NC(=O)c2ccccc2)C(=O)N[C@@H](Cc2ccccc2)C(=O)NCc2ccc(CN)cc2)cc1 [KVD001]
- Maximum BCVA increase: 4.1 ETDRS letters
- Mean reduction in CST: 23 µm
